In patent publication US12648932B2, “Ergothioneine, S-methyl-ergothioneine, and uses thereof” (FUNDACIÓ INSTITUT D'INVESTIGACIÓ BIOMÈDICA DE BELLVITGE …, priority 2019, dated 2026):

Key:
[1] = tested on: lithiasic phenotype in cystinuric mice; test: ROC curve of urine S-Met-L-Erg concentration to differentiate the lithiasic phenotype; set-up: species or system mouse; details: stone former vs non-stone former Slc7a9-/- mice
Experimental: Mice from each genotype were individually housed in metabolic cages for 4 days with the first day as an adaptation period. Mice weight, water and food intake, and feces and urine excreted were monitored daily. 24 h urine samples were collected and kept at −80° C. until further analysis with 50 μL thymol 10% in isopropanol as preservative. Blood was obtained by intracardiac puncture with EDTA coated syringes and transferred into Microvette EDTA-tubes (Sarstedt) and centrifuged at 3000 rpm for 10 min and 4° C. in a minifuge after a 10 min incubation at room temperature. Plasma was then separated into a new tube and kept on ice. Plasma absorbance at 414 nm was then determined to quantify hemolysis with a NanoDrop spectrophotometer and only those with OD<0.2 were considered for the further analysis. Plasma samples were stored at −80° C. and centrifuged erythrocytes (RBCs) were also collected and stored at −80° C.
For L-Erg and S-met-L-Erg analysis in urine, thawed urine samples where centrifuged at 1000×g 5 min and 4° C. to remove any debris. […] The samples where then filtered through eXtremeFV PVDF 0.2 μm filter vials (Thomson Instrument Company), and L-Erg and S-met quantified by UPLC-MS/MS. […]
Mass spectrometry was carried out under positive ion, electrospray ionization mode, using multiple reaction monitoring (MRM) for quantification of specific target ions. […]

[2] = equivalent of 5 mg/kg·day; cited from earlier work
[3] = L-Erg-Cys in vitro binding assay; details: pH=7.2 and pH=11, RT, 17 h, LC/MS-MS
Experimental: The reactivity of L-Erg with itself and with Cys was assayed in vitro at two conditions pH=7.2 in 0.2M Na2HPO4 and pH=11 in boric acid buffer (ref. 33650-1L, Fluka) at RT for 17 h. The presence of L-Erg-L-Erg and L-Erg-Cys dimers, and cystine was determined by LC/MS-MS.

[4] = tested on: cystinuric mice (cystine stone formation); test: 6-month (chronic) L-Erg treatment of cystinuric mice since weaning, cystine stone onset by X-ray imaging; assay type: in vivo, mouse; details: for stone growth (rate) in the L-Erg treated group: preventive treatment
Experimental: For the chronic exposure (6-month treatment), 4-6 mice per cage were treated since weaning for 6 months. To control L-Erg dose, water intake and mice weight were monitored and L-Erg concentration in drinking water was adjusted to get 16 mg/kg·day dose every 3 days for the first month and weekly afterwards. All mice were caged in metabolic cages individually the last week of the treatment to collect urine where water intake and mice weight were monitored daily.
(§1) Isoflurane anesthetized mice were subjected to X-ray imaging for lithiasis detection and follow-up with an IVIS Lumina XR Series III (Caliper Lifescience-Vertex Techniques) following manufacturer's imaging parameters at the age indicated in the corresponding figure legends with a calibration curve of cystine stone of known weights. Stone quantification was done using Living Image Software, provided with the instrument, by manually delimiting stone area and the estimated weight was interpolated from the calibration curve.
(§2) For the growth rate analysis, a linear regression model was used when more than 2 data points where available. The slope of the regression line in the model was used as the growth rate.
(§3) During the last week of any treatment period, mice were individually housed in metabolic cages for 4 days with the first day as an adaptation period. Mice weight, water and food intake, and excreted urine were monitored daily. 24 h urine samples were collected and kept at −80° C. until further analysis with 50 μL thymol 10% in isopropanol as preservative. pH was determined with a pHmeter (cat. no. 5209, Crison), and the redox potential with an ORP electrode (cat.no. 5265, Crison) at room temperature on a micropH 2000 (Crison).
On the last day, mice were anesthetized with isfluorane and blood removed through intracardiac puncture and kidneys were harvested, weighted and stored at −80° C. until further use. Cystine stones, if present, were removed, dried, weighted and stored at RT.

[5] = tested on: lithiasic mice (cystine stone growth); test: 3-month L-Erg treatment of lithiasic mice, cystine stone growth by X-ray imaging; assay type: in vivo, mouse; details: 3 months
Experimental: For the evaluation of L-Erg effect on lithiasic mice, 15 mice (8 males and 7 females) were treated with 60 mg/L L-Erg on the drinking water and 13 mice (4 male and 9 females were left untreated as control. Mice were 10.9-26-9 weeks-old at the beginning of the treatment period with a mean age of 15.3±1.4 and 16.9±1.01 weeks of age for control and L-Erg treated, respectively. During the 3-month treatment water intake and mice weight was monitored weekly.
as §1, §2, §3

[6] = tested on: transulfuration pathway metabolites in kidney; test: Intracellular content of transulfuration pathway metabolites in kidneys of chronically treated mice (UPLC-MS/MS); assay type: in vivo, mouse; details: chronically L-Erg treated vs untreated mice
Experimental: For the chronic exposure (6-month treatment), 4-6 mice per cage were treated since weaning for 6 months. To control L-Erg dose, water intake and mice weight were monitored and L-Erg concentration in drinking water was adjusted to get 16 mg/kg·day dose every 3 days for the first month and weekly afterwards. All mice were caged in metabolic cages individually the last week of the treatment to collect urine where water intake and mice weight were monitored daily. On the last day, mice were anesthetized with isfluorane and blood removed through intracardiac puncture and kidneys were harvested, weighted and stored at −80° C. until further use. Cystine stones, if present, were removed, dried, weighted and stored at RT. L-Erg and S-Met-L-Erg analysis in urine were determined as in Example 1. For the determination of transulfuration pathway metabolites concentration, frozen kidneys were grinded using a pre-cooled mortar and pestle on dry ice. Then, 100 mg of powdered kidney were homogenized in 400 μL PBS supplemented with 10 mM NEM. To induce protein precipitation, PCA at 4% was added and samples were centrifuged at 4° C. for 15 min at 10,000 rpm in a microfuge. Supernatants were transferred to a new tube and stored at −80° C. until further analysis. Intracellular content of transulfuration pathway metabolites was determined by U PLC-MS/MS (Escobar J, et al. Development of a reliable method based on ultra-performance liquid chromatography coupled to tandem mass spectrometry to measure thiol-associated oxidative stress in whole blood samples. J. Pharm. Biomed. Anal. 2016; 123: 104-112). Protein pellets were resuspended in 400 μL 1M NaOH and the supernatant used to determine total protein concentration by BCA Protein Assay Kit (ThermoScientific).

[7] = tested on: cystinuria mouse model; test: 1-month L-Erg treatment in the drinking water (dose finding): water intake, urine pH, ORP, urine L-Erg and S-Met-L-Erg; assay type: in vivo; details: for increase of L-Erg concentration in urine: after vs before treatment
Experimental: Three different treatments were applied to mice: 1-month, 3-month to lithiasic mice (subchronic) and 6-month (chronic exposure). In all cases L-Erg was administered in the drinking water.
For the 1-month treatment, L-Erg was provided to eight 3-month old male and female mice at 15 or 60 mg/L for 4 weeks in standard cages with free access to water and food to 8 mice (4 males and 4 females).
as §3
L-Erg and S-Met-L-Erg analysis in urine were determined as in Example 1. For the determination of transulfuration pathway metabolites concentration, frozen kidneys were grinded using a pre-cooled mortar and pestle on dry ice. Then, 100 mg of powdered kidney were homogenized in 400 μL PBS supplemented with 10 mM NEM. To induce protein precipitation, PCA at 4% was added and samples were centrifuged at 4° C. for 15 min at 10,000 rpm in a microfuge. Supernatants were transferred to a new tube and stored at −80° C. until further analysis. Intracellular content of transulfuration pathway metabolites was determined by U PLC-MS/MS (Escobar J, et al. Development of a reliable method based on ultra-performance liquid chromatography coupled to tandem mass spectrometry to measure thiol-associated oxidative stress in whole blood samples. J. Pharm. Biomed. Anal. 2016; 123: 104-112). Protein pellets were resuspended in 400 μL 1M NaOH and the supernatant used to determine total protein concentration by BCA Protein Assay Kit (ThermoScientific).
First, there were determined the best working dose for treating the mice by investigating the effects of 1-month L-Erg treatment at two different concentrations in the drinking water, 15 and 60 mg/L, on water intake, and urine pH and ORP and L-Erg concentration.

[8] = end of 6-month treatment, treated vs non-treated
[9] = 60 mg/L, before vs after treatment
[10] = 60 mg/L L-Erg in drinking water

CSc1ncc(C[C@@H](C(=O)[O-])[N+](C)(C)C)[nH]1 [S-Met-L-Erg, (2-{S})-3-(2-methylsulfanyl-1-{H}-imidazol-5-yl)-2-(trimethylazaniumyl)propanoate]
area under the ROC curve, urine concentration as lithiasic biomarker [1]: over 0.65

C[N+](C)(C)[C@@H](Cc1c[nH]c(=S)[nH]1)C(=O)[O-] (stereo in doubt) [L-Erg, [1-carboxy-2-(2-sulfanylidene-1,3-dihydroimidazol-4-yl)ethyl]-trimethylazanium]
time L-Erg blood and plasma concentrations remain significatively higher after the administration end [2]: 6 weeks
formation of L-Erg-Cys and L-Erg-L-Erg dimers [3]: Neither L-Erg-Cys, nor L-Erg-L-Erg dimers were detected
lithiasis onset ([4]; 16 mg/kg·day, 6 months, independently of sex): delayed lithiasis onset
stone growth (rate) in the L-Erg treated group ([4]; 16 mg/kg·day, 6 months, vs untreated): almost statistically significant reduction
stone growth (rate) in the L-Erg treated group ([4]; 16 mg/kg·day, 6 months, vs untreated, listed as ergothioneine): lower
effect on mouse weight ([4]; 6-month chronic treatment): no effects
effect on water intake ([4]; 6-month chronic treatment): no effects
effect on urine pH [4, 8]: no differences
effect on urine redox potential [4, 8]: statistically significant more reduced urine
side effects in cystinuric mice ([4]; mouse, in vivo): does not generate any side effect
reduction in the number of lithiasic (stone-forming) mice ([4]; target dose 16 mg/kg·day in drinking water since weaning, 6 months, vs untreated): 50%
delay of stone formation in relation to non-treated mice ([4]; treated mice that still formed stones): 1 month
effect on cystine stone growth ([5]; 60 mg/L in drinking water, lithiasic mice, treated vs untreated, p=0.61): No effect
effect on growth of multiple stones ([5]; 60 mg/L in drinking water, p=0.41): No statistically significant effect
effect on growth of single stones ([5]; 60 mg/L in drinking water, p=0.78): No statistically significant effect
effect on surface corrected water intake [5, 9]: no differences
effect on urine pH [5, 9]: no differences
effect on urine redox status [5, 9]: no differences
Cys intracellular concentration in kidney, increase [6]: 1.6 ×
Cys/CssC ratio in kidney, increase [6]: 6.1 times
GSH intracellular concentration in kidney, increase [6]: 1.4 ×
GSH/GSSG ratio in kidney, increase [6]: 2.1 times
Met intracellular concentration in kidney, increase [6]: 1.7 ×
S-adenosylhomocysteine (SAH) intracellular concentration in kidney, decrease [6]: 1.2 ×
SAM/SAH ratio in kidney, increase [6]: 1.8 times
cystine intracellular concentration in kidney, decrease [6]: 11.1 ×
gamma-Glutamylcysteine intracellular concentration in kidney, increase [6]: 1.7 ×
increase of L-Erg concentration in urine ([7]; 15 mg/L L-Erg in drinking water): 3.4±0.4 fold
urine pH change ([7]; 15 mg/L L-Erg in drinking water, p=0.052): statistically non-significant increase
water intake normalized by surface, change at the end of the treatment ([7]; 15 mg/L L-Erg in drinking water, p=0.11): statistically non-significant increase
urine pH change [7, 10]: statistically significant increase
increase of L-Erg concentration in urine [7, 10]: 174.6±38.4 fold
water intake normalized by surface, change at the end of the treatment ([7]; 60 mg/L L-Erg in drinking water, p=0.08): statistically non-significant increase
urine redox status or potential (ORP) change ([7]; 15 and 60 mg/L L-Erg in drinking water): statistically non-significant decrease
